Source: publication PMC9643456, “Matching amino acids membrane preference profile to improve activity of antimicrobial peptides” (Communications Biology, 2022)
Ends that are not written are not given here.

What was measured:
MDR S. aureus = experiment: microbe, parasite or virus in culture; conditions: for MIC in 0.2% albumin and 0.01% AcOH added CLSI standard condition, MDR S. aureus: CAMHB plus 0.2% bovine serum albumin and 0.01% acetic acid, values marked * in Table 2; for Minimum inhibitory concentrations, MDR S. aureus: CLSI broth microdilution, CAMHB with 50 mg/L Ca2+, 10 mg/L Mg2+, 5 × 10^5 CFU/ml, 18 h 37 °C, triplicate, strain KCCM 40510
Outline: (§1)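 CLSI broth microdilution, CAMHB + Ca 50 mg/L, Mg 10 mg/L. Mid-log inoculum 5 × 10^5 CFU/ml final, 18 h, 37 °C. MIC = lowest peptide conc. with no visible turbidity by eye; triplicate.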

MDR P. aeruginosa = experiment: microbe, parasite or virus in culture; conditions: for MIC in 0.2% albumin and 0.01% AcOH added CLSI standard condition, MDR P. aeruginosa: CAMHB plus 0.2% bovine serum albumin and 0.01% acetic acid, values marked * in Table 2; for Minimum inhibitory concentrations, MDR P. aeruginosa: CLSI broth microdilution, CAMHB with 50 mg/L Ca2+, 10 mg/L Mg2+, 5 × 10^5 CFU/ml, 18 h 37 °C, no visible turbidity, triplicate, strain CCARM 2180
Outline: as §1

MDR E. faecalis = experiment: microbe, parasite or virus in culture; conditions: for MIC in 0.2% albumin and 0.01% AcOH added CLSI standard condition, MDR E. faecalis: CAMHB plus 0.2% bovine serum albumin and 0.01% acetic acid, values marked * in Table 2; for Minimum inhibitory concentrations, MDR E. faecalis: CLSI broth microdilution, CAMHB with 50 mg/L Ca2+, 10 mg/L Mg2+, 5 × 10^5 CFU/ml, 18 h 37 °C, triplicate, strain ATCC 51575
Outline: as §1

MDR A. baumannii = experiment: microbe, parasite or virus in culture; conditions: for MIC in 0.2% albumin and 0.01% AcOH added CLSI standard condition, MDR A. baumannii: CAMHB plus 0.2% bovine serum albumin and 0.01% acetic acid, values marked * in Table 2; for Minimum inhibitory concentrations, MDR A. baumannii: CLSI broth microdilution, CAMHB with 50 mg/L Ca2+, 10 mg/L Mg2+, 5 × 10^5 CFU/ml, 18 h 37 °C, triplicate, strain ATCC BAA-1605
Outline: as §1

[1] = Maximum soluble concentration / turbidity; type: physicochemical; conditions: for solubility: distilled water; for Maximum soluble concentration in PBS: lyophilized peptide reconstructed in PBS at 200-6.25 μM, visible turbidity checked every 12 h for 5 days, at least twice
Method: Supplementary Methods Bacteria preparation, Antimicrobial peptides preparation, Minimal-inhibitory-concentration measurements, Hemolysis-activity measurements, Tryptophan fluorescence measurements, Isothermal titration calorimetry measurements, Bacteria membrane ion permeation measurements, Outer-inner membrane permeation, Field-emission scanning electron microscopy and Antimicrobial kinetics were performed as described in Materials and Methods. Liposome (LUV) preparation. Bacterial-membrane-mimic DMPC/DMPG unilamellar vesicles (LUV) and mammalian- membrane-mimic PC/cholesterol vesicles with 100-nm diameters were prepared by extrusion. LiposoFast Liposome Factory Basic unit with stabilizer (Avestin, Ottawa, Canada) was used to extrude liposomes 50 times through a polycarbonate membrane filter (pore diameter, 100 nm; filter diameter, 0.75 inches) (Avestin). […] rac-(1-glycerol)) (sodium salt) (DMPG) (Avanti, Alabama, USA); 1,2-Dimyristoyl-sn-glycero-3-phosphocholine (DMPC) (Avanti); and cholesterol (Sigma, Darmstadt, Germany) were used. For circular dichroism, isothermal titration calorimetry, tryptophan fluorescence, and dynamic light scattering experiments, liposomes were reconstructed and resuspendedwith phosphate-buffered saline (PBS; Welgene Inc, Gyeongsangbuk-do, Korea). For calcein-permeation tests, liposomes were reconstructed with calcein solutions (80 mM, 40 mM, 30 mM, 20 mM, and 10 mM) (Sigma, Darmstadt, Germany), purified with Sephadex-G50 columns (Pharmacia biotech, Stockholm, Sweden), and resuspended with PBS. Maximum-soluble -concentration measurements. […] turbidity with PBS. The lowest concentration of peptide without visible turbidity was determined to be the maximu m soluble concentration. Each experiment was performed at least twice. Circular dichroism (CD) spectrum. DMPC/PG -liposome, PC/cholesterol -liposome, and peptide stock solutions were diluted in PBS. For circular dichroism, PBS with neither liposome nor peptides was also prepared. Liposomes and peptides were mixed to […] Samples were transferred into type J/1 cuvettes (Jasco, Tokyo, Japan). Cuvettes were placed into the J -815 circular -dichroism spectrometer (Jasco, Tokyo, Japan). Measurement parameters were as follows: wavelength, 190 -260 nm; data pitch, 0.2 nm; bandwidth, 1.00 nm; […] Each experiment was performed in triplicate. Data below 197 nm was not analyzed because o f experimental difficulties in obtaining those spectra. Each experiment was performed at least twice. Artificial membrane calcein permeation measurements. Calcein fluorescence was used to measure peptide -induced liposome permeation. Calcein solutions (10 mM, 20 mM, or 60 mM) containing PC/PG liposomes and peptides were diluted in PBS ( ×1, ×2, ×3, ×8). […] Liposome solutions (180 μl) were transferred to wells of black, clear -bottomed 96 -well plates (Costar, New York, USA). Peptide […] Liposome-containing plates and peptide -containing plates were inserted into a Flexstation 3 Multi -Mode Microplate Reader (Molecular Devices, California, USA). Peptide solutions (20 μl) were transferred and mixed with liposome solution automatical ly after 30 sec. […] Measurement parameters were as follows: excitation, 490 nm; emission, 520 nm; temperature, 37 °C. […] was transferred and mixed with the liposome -peptide solu tions automatically after 300 sec to acquire fluorescence at maximum leakage. […] Fluorescence measured between 0 -300 sec after addition of 0 μg/ml peptide was considered the baseline. Each experiment was performed at least twice. Dynamic light scattering (DLS) measurements. Dynamic light scattering was used to measure peptide -induced liposome volume changes. PC/PG -liposome stock solutions and peptides were resuspended in PBS. Liposomes and peptides were mixed to […]

human red blood cells = experiment: Hemolytic activity; type: cell-based; conditions: red cells of human, 18 h
Outline: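 Peptides (100 μM down to 0.78 μM) were incubated with 4% final human erythrocytes in PBS for 18 h at 37 °C. Supernatant absorbance at 540 nm after centrifugation was scaled to 1% Triton X-100 (100%) and no peptide (0%); melittin served as positive control; triplicate runs.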

Substance	MIC in 0.2% albumin and 0.01% AcOH added CLSI standard condition, MDR S. aureus (MDR S. aureus) [µM]	Minimum inhibitory concentrations, MDR S. aureus (MDR S. aureus) [µM]	MIC in 0.2% albumin and 0.01% AcOH added CLSI standard condition, MDR P. aeruginosa (MDR P. aeruginosa) [µM]	Minimum inhibitory concentrations, MDR P. aeruginosa (MDR P. aeruginosa) [µM]	MIC in 0.2% albumin and 0.01% AcOH added CLSI standard condition, MDR E. faecalis (MDR E. faecalis) [µM]	Minimum inhibitory concentrations, MDR E. faecalis (MDR E. faecalis) [µM]	MIC in 0.2% albumin and 0.01% AcOH added CLSI standard condition, MDR A. baumannii (MDR A. baumannii) [µM]	Minimum inhibitory concentrations, MDR A. baumannii (MDR A. baumannii) [µM]	solubility [1] [µM]	Maximum soluble concentration in PBS [1] [µM]	Hemolysis percent, 25 μM (human red blood cells) [%]	Hemolysis percent, 50 μM (human red blood cells) [%]	Hemolysis percent, 100 μM (human red blood cells) [%]	MIC at TM potential condition, S. aureus KCCM 40510 (MDR S. aureus; bacteria OD 0.1 (5 x 10^7 cfu/ml), CAMHB, 1% DMSO) [µM]
GVLVWFRRR-NH2 [Ptg C-ter 2]	> 20	> 20	> 20	> 20	> 20	> 20	> 20	> 20	< 500	100	0.52 ±0.05	1.14 ±0.02	1.80 ±0.07	
GVWVLFRRR-NH2 [Ptg C-ter 3]	> 20	> 20	> 20	> 20	> 20	> 20	> 20	> 20	< 500	100	0.44 ±0.10	0.80 ±0.09	1.32 ±0.09	
LLLLLWRRR-NH2 [AcWL-2]	10		> 20	> 20	10		20	> 20		50	14.39 ±0.70	15.13 ± 2.05	27.97 ±2.79	
RWLRWWIRV-NH2 [HLWCopW29-1]	10		20		10		1.25	2.5		> 200	1.20 ±0.14	1.35 ±0.11	16.39 ±2.19	
WLRRWWIRV-NH2 [HLWCopW29-2]	10		> 20	> 20	10		2.5	5		> 200	1.87 ±0.12	4.13 ±0.28	19.60 ±0.50	> 20
WLVWIGRRR-NH2 [Hybrid-2]	> 20	> 20	> 20	> 20	> 20	> 20	10			> 200	0.66 ±0.07	1.21 ±0.01	2.88 ±1.49	
WLVWVGRRR-NH2 [Hybrid-1]	> 20	> 20	> 20	> 20	> 20	> 20	> 20	> 20		> 200	0.88 ±0.24	1.09 ±0.32	1.40 ±0.08	
WLVWVWRRR-NH2 [Hybrid-3]	5	10	> 20	> 20	2.5	10	0.63	2.5		> 200	4.26 ±0.63	5.14 ±0.19	7.17 ±1.09	
WRLWRWIVR-NH2 [HLWCopW29-3]	20		> 20	> 20	20		20			> 200	1.10 ±0.14	1.37 ±0.02	4.45 ±0.23	
